Experimental data from PMC3113701 (Nature communications, 2010).
Converted amounts (≈) assume the structure as drawn. “Also recorded” adds a separate entry of the source. Where two headings read alike, the source gives them in different places. Blank lines part the entries; values can stand above or below the compound they belong to.

Assays:
NR1/NR2C receptors [1] = biological target: T1, NR1/NR2C receptors (Rattus norvegicus, UniProt Q00961); assay: Two-electrode voltage-clamp, recombinant NR1/NR2C in Xenopus oocytes; assay type: cell-based; settings: for Slope: Control (no CIQ)
T1 sequence (Q00961 20-1237, other chains not shown): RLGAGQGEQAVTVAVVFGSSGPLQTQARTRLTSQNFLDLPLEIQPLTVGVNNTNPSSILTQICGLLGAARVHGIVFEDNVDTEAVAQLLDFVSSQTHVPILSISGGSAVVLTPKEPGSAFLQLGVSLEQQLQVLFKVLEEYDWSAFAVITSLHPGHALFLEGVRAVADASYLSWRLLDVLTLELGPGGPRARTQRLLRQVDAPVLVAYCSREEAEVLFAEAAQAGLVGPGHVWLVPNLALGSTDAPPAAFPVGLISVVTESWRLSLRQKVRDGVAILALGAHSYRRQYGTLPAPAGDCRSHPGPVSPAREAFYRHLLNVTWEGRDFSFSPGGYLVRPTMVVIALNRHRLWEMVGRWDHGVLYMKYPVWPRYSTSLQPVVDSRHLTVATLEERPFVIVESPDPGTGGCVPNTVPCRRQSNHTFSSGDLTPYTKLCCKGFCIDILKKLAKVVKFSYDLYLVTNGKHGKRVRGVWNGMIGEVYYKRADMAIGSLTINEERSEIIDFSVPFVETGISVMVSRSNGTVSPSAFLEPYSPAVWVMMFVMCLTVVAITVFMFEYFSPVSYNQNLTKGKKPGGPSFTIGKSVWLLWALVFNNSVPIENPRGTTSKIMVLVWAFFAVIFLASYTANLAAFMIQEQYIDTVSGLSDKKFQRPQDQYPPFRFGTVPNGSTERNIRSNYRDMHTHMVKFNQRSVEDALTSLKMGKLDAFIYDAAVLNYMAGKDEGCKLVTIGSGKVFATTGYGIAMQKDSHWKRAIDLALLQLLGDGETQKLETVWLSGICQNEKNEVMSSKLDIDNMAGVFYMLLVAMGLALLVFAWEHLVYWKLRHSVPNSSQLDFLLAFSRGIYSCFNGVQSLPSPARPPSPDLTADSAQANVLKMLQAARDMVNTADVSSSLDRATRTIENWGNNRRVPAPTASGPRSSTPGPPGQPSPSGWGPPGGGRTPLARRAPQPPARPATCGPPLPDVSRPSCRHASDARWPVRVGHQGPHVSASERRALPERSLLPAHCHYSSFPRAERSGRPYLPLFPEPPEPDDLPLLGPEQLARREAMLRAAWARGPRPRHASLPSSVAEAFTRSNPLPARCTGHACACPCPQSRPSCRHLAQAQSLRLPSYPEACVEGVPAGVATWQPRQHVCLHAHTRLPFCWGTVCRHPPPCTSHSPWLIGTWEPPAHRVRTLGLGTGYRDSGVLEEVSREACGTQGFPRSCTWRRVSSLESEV

NR1/NR2D receptors [2] = biological target: T2, NR1/NR2D receptors (Rattus norvegicus, UniProt Q62645); assay: Two-electrode voltage-clamp, recombinant NR1/NR2D in Xenopus oocytes; assay type: cell-based; settings: for Slope: Control (no CIQ)
T2 sequence (Q62645 28-1323, other chains not shown): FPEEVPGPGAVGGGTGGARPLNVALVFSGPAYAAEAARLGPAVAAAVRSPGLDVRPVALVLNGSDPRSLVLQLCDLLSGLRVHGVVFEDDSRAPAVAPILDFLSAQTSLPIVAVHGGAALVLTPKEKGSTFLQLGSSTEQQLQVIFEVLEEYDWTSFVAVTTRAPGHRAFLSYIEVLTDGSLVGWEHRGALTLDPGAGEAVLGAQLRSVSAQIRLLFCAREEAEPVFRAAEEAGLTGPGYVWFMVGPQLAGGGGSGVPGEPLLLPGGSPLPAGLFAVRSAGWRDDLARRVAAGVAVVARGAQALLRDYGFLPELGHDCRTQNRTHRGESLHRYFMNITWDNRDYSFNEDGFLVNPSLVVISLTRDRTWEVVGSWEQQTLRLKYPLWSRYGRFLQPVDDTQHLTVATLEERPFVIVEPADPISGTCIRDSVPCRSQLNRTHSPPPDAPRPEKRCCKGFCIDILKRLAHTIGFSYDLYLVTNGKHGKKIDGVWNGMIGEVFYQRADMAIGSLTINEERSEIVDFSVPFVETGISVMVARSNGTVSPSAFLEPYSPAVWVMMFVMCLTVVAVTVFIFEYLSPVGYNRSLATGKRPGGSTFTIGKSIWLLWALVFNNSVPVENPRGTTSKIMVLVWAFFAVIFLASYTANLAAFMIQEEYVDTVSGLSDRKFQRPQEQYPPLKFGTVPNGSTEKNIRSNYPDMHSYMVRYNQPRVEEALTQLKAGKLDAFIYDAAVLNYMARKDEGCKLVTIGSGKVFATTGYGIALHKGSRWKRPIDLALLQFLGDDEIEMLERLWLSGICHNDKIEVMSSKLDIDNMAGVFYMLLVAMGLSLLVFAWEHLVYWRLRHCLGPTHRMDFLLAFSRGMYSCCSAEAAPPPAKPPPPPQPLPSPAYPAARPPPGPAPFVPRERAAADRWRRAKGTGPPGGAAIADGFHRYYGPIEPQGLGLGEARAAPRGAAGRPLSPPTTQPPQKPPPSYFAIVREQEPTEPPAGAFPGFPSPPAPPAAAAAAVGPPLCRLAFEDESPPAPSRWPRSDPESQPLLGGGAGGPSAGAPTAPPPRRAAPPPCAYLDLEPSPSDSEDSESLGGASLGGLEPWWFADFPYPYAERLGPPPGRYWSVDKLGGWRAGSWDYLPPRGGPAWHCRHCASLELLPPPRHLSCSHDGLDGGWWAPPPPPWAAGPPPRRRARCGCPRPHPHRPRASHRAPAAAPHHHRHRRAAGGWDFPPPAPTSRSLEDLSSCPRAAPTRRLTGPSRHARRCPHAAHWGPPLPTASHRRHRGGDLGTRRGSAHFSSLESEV

[3] = test system: NMDA receptors containing the NR2C or NR2D subunit; assay: Potentiation of NR2C- or NR2D-containing NMDA receptors; assay type: cell-based; settings: read-out: EC50 for enhancement of receptor responses; abstract summary value
[4] = test system: NR2A-(2D L+M1e) chimeric receptor; assay: Oocyte recording of chimera NR2A-; assay type: cell-based, rat; settings: 10 μM CIQ plus 100 μM glutamate and 30 μM glycine
[5] = test system: 2D-(2A ATD+L) chimeric receptor; assay: Oocyte recording of chimera 2D-; assay type: cell-based, rat; settings: oocytes
[6] = test system: NR2A(I567T) with linker (L) between NR2D ATD and S1; assay: Oocyte recording of NR2A; assay type: cell-based, rat; settings: 10 μM CIQ; oocytes
[7] = test system: native NMDA receptors in subthalamic neurons; assay type: cell-based, rat
NR1/NR2D receptors [8] = biological target: T2, NR1/NR2D receptors; assay: Single channel recording, outside-out patches with NR1/NR2D; assay type: cell-based; settings: 10 μM CIQ
[9] = test system: 2D-(2A L) chimeric receptor; assay: Oocyte recording of chimera 2D-; assay type: cell-based, rat; settings: oocytes
GluR3 receptor = assay: Two-electrode voltage-clamp, GluR3 in oocytes; assay type: cell-based; settings: 10 μM CIQ, 100 μM glutamate
NR1/NR2B receptors [10] = assay: Whole-cell voltage-clamp, NR1/NR2B in HEK 293 cells; assay type: cell-based, rat; settings: 20 μM CIQ
GluR2 receptor = assay: Two-electrode voltage-clamp, GluR2 in oocytes; assay type: cell-based; settings: 10 μM CIQ, 100 μM glutamate
[11] = test system: native NMDA receptors in CA1 hippocampal pyramidal neurons; assay type: cell-based, rat; settings: 20 μM CIQ; pressure-applied NMDA and glycine
[12] = test system: 2A-(2D L+S1M1c) chimeric receptor; assay: Oocyte recording of chimera 2A-; assay type: cell-based, rat; settings: 10 μM CIQ plus 100 μM glutamate and 30 μM glycine
kainate (GluR6) receptor = assay: Two-electrode voltage-clamp, kainate receptor GluR6 in oocytes; assay type: cell-based; settings: 10 μM CIQ; 100 μM glutamate; concanavalin-A pretreated oocytes
NR1/NR2C receptors [13] = biological target: T1, NR1/NR2C receptors; assay: Whole-cell voltage-clamp, NR1/NR2C in HEK 293 cells; assay type: cell-based
NR1/NR2C receptors [14] = biological target: NR1/NR2C receptors (Rattus norvegicus, UniProt P35439+Q00961); assay: as above; assay type: cell-based
NR1/NR2C receptors (Rattus norvegicus, UniProt P35439+Q00961), sequence (Q00961 20-1237, other chains not shown): as the sequence (Q00961 20-1237, other chains not shown) above

AMPA (GluR1) receptor = assay: Two-electrode voltage-clamp, AMPA receptor GluR1 in oocytes; assay type: cell-based; settings: 10 μM CIQ, 100 μM glutamate
[15] = Maximum solubility by nephelometer; assay type: physicochemical; settings: kinetic from dmso stock
[16] = test system: NR2A with residues 590-594 of NR2D; assay: Oocyte recording of NR2A with NR2D residues 590-594 alone; assay type: cell-based, rat; settings: oocytes
[17] = test system: 2A-(2D L+S1M1) chimeric receptor; assay: Oocyte recording of chimera 2A-; assay type: cell-based, rat; settings: 10 μM CIQ plus 100 μM glutamate and 30 μM glycine
[18] = test system: NR2A with ATD-S1 linker (L) of NR2D; assay: Oocyte recording of NR2A with NR2D ATD-S1 linker; assay type: cell-based, rat; settings: oocytes
NR1/NR2B receptors [19] = assay: Two-electrode voltage-clamp, recombinant NR1/NR2B in Xenopus oocytes; assay type: cell-based, rat
NR1/NR2A receptors [20] = assay: Two-electrode voltage-clamp, recombinant NR1/NR2A in Xenopus oocytes; assay type: cell-based, rat
[21] = test system: 2A-(2D L+S1M1M2M3S2) chimeric receptor; assay: Oocyte recording of chimera 2A-; assay type: cell-based, rat; settings: 10 μM CIQ plus 100 μM glutamate and 30 μM glycine
NR1/NR2D receptors [22] = biological target: T2, NR1/NR2D receptors; assay: Whole-cell voltage-clamp, NR1/NR2D in HEK 293 cells; assay type: cell-based
GluR4 receptor = assay: Two-electrode voltage-clamp, GluR4 in oocytes; assay type: cell-based; settings: 10 μM CIQ, 100 μM glutamate
NR1/NR2A* receptors = assay: Oocyte recording of NR1/NR2A*; settings: oocytes; triheteromeric recording conditions
GluR5 receptor = assay: Two-electrode voltage-clamp, GluR5 in oocytes; assay type: cell-based; settings: 10 μM CIQ; 100 μM glutamate; concanavalin-A pretreated oocytes
[23] = test system: NR1/NR2A*/NR2B triheteromeric receptors; assay: Triheteromeric NMDA receptors in oocytes, NR1/NR2A*/NR2B; settings: 10 μM CIQ; 10 mM glutamate, 100 μM glycine, 1 mM Mg2+
[24] = test system: 2A-(2D L+S1M1b) chimeric receptor; assay: Oocyte recording of chimera 2A-; assay type: cell-based, rat; settings: 10 μM CIQ plus 100 μM glutamate and 30 μM glycine
[25] = test system: NR1/NR2A*/NR2C triheteromeric receptors; assay: Triheteromeric NMDA receptors in oocytes, NR1/NR2A*/NR2C; settings: 10 μM CIQ; 10 mM glutamate, 100 μM glycine, 1 mM Mg2+
NR1/NR2A receptors [26] = assay: Whole-cell voltage-clamp, NR1/NR2A in HEK 293 cells; assay type: cell-based, rat; settings: concentration-effect relationship
NR1/NR2D(T592I) = assay: Oocyte recording of mutant NR1/NR2D; assay type: cell-based, rat; settings: oocytes
[27] = test system: NR1/NR2A*/NR2D triheteromeric receptors; assay: Triheteromeric NMDA receptors in oocytes, NR1/NR2A*/NR2D; settings: 10 μM CIQ; 10 mM glutamate, 100 μM glycine, 1 mM Mg2+
[28] = read-out: agonist EC50, + 20 μM CIQ
[29] = read-out: agonist EC50, Control (no CIQ)
[30] = 10 μM CIQ in 100 μM glutamate and 30 μM glycine, HEK 293, 23°C
[31] = HEK 293 cells, single exponential
[32] = following pre-application of CIQ, HEK 293
[33] = 10 μM CIQ plus 100 μM glutamate and 30 μM glycine

SMILES: NCC(=O)O [Glycine, reference compound]
Slope (NR1/NR2C receptors [1]): 1.5 | Slope (NR1/NR2D receptors [2]): 1.5

SMILES: N[C@@H](CCC(=O)O)C(=O)O [Glutamate, reference compound]
Slope (NR1/NR2C receptors [1]): 1.5 | EC50 (NR1/NR2C receptors [1]; [28]): 620 ± 40 nM | EC50 (NR1/NR2C receptors [1]; [29]): 740 ± 60 nM | Slope (NR1/NR2D receptors [2]): 1.5 | EC50 (NR1/NR2D receptors [2]; [28]): 240 ± 20 nM | EC50 (NR1/NR2D receptors [2]; [29]): 300 ± 30 nM

EC50 [3]: 3000 nM | effect on the reversal potential (NR1/NR2D receptors [8]): no detectable effect | mean shut time, % of control (NR1/NR2D receptors [8]): 75 ± 8 % of control | closed duration area, component 1 (NR1/NR2D receptors [8]; composite of 6 patches): 37 | closed duration area, component 2 (NR1/NR2D receptors [8]; composite of 6 patches): 18 | closed duration area, component 3 (NR1/NR2D receptors [8]; composite of 6 patches): 12 | closed duration area, component 4 (NR1/NR2D receptors [8]; composite of 6 patches): 18 | closed duration area, component 5 (NR1/NR2D receptors [8]; composite of 6 patches): 15 | closed duration area, component 6 (NR1/NR2D receptors [8]; composite of 6 patches): 0.75 | closed duration time constant, component 1 (NR1/NR2D receptors [8]; composite of 6 patches): 0.026 ms | closed duration time constant, component 2 (NR1/NR2D receptors [8]; composite of 6 patches): 0.23 ms | closed duration time constant, component 3 (NR1/NR2D receptors [8]; composite of 6 patches): 0.73 ms | closed duration time constant, component 4 (NR1/NR2D receptors [8]; composite of 6 patches): 3.4 ms | closed duration time constant, component 5 (NR1/NR2D receptors [8]; composite of 6 patches): 12 ms | closed duration time constant, component 6 (NR1/NR2D receptors [8]; composite of 6 patches): 39 ms | open period time constant 1, composite distribution (NR1/NR2D receptors [8]; composite of 6 patches): 0.036 ms | open period time constant 2, composite distribution (NR1/NR2D receptors [8]; composite of 6 patches): 0.63 ms | change of CIQ potentiation vs NR2D [9]: did not significantly alter | effect on receptor response (GluR3 receptor): not significantly different than control | effect on receptor response (GluR2 receptor): not significantly different than control | CIQ sensitivity of chimeric receptor [12]: CIQ sensitivity is observed | response compared to control (NR1/NR2C receptors [13]; [30]): 180% | maximal potentiation (NR1/NR2C receptors [13]; HEK 293 cells): 180% | de-potentiation time constant tau (NR1/NR2C receptors [13]; [31]): 4.0 ± 0.7 s | 10-90% rise time of receptor response (NR1/NR2C receptors [13]; [32]): 9 ± 1 ms | EC50 (NR1/NR2C receptors [14]): 1700 nM | solubility [15]: 20 µM (≈ 9.36 µg/mL) | CIQ activity at chimeric receptor [16]: did not show any activity | CIQ sensitivity of chimeric receptor [17]: CIQ sensitivity is observed | CIQ activity at chimeric receptor [18]: did not show any activity | response in the presence of CIQ vs control (NR1/NR2C receptors [1]; [33]): significantly different than in control | potentiation of NMDA-activated response (NR1/NR2C receptors [1]; 100 μM NMDA and 30 μM glycine): 233 ± 13% | effect of CIQ alone (no agonist) (NR1/NR2C receptors [1]; CIQ alone): no effect | maximal potentiation (NR1/NR2C receptors [1]; response without CIQ = 100%): 197 ± 20% | potentiation of NMDA-activated response (NR1/NR2B receptors [19]; 100 μM NMDA plus 30 μM glycine): did not potentiate | potentiation of NMDA-activated response (NR1/NR2A receptors [20]; 100 μM NMDA plus 30 μM glycine): did not potentiate | CIQ sensitivity of chimeric receptor [21]: CIQ sensitivity is observed | response compared to control (NR1/NR2D receptors [22]; [30]): 180% | potentiation of response to NMDA at 33°C (NR1/NR2D receptors [22]; 10 μM CIQ, 33°C, HEK 293 cells): 200±20% | maximal potentiation (NR1/NR2D receptors [22]; HEK 293 cells): 180% | de-potentiation time constant tau (NR1/NR2D receptors [22]; [31]): 6.5 ± 0.7 s | 10-90% rise time of receptor response (NR1/NR2D receptors [22]; [32]): 15 ± 2 ms | effect on receptor response (GluR4 receptor): not significantly different than control | effect on receptor response (GluR5 receptor): not significantly different than control | CIQ sensitivity of chimeric receptor [24]: CIQ sensitivity is observed | effect on triheteromeric receptor response [25]: significantly potentiated | response in the presence of CIQ vs control (NR1/NR2D receptors [2]; [33]): significantly different than in control | potentiation of NMDA-activated response (NR1/NR2D receptors [2]; 100 μM NMDA and 30 μM glycine): 205 ± 5% | effect of CIQ alone (no agonist) (NR1/NR2D receptors [2]; CIQ alone): no effect | potentiation of receptor response, % of control (NR1/NR2D receptors [2]; CIQ dissolved in 2-hydroxypropyl-beta-cyclodextrin solution (1% w/v), no DMSO): 144 ± 3 % of control | maximal potentiation (NR1/NR2D receptors [2]; response without CIQ = 100%): 211 ± 7% | effect on triheteromeric receptor response [27]: significantly potentiated
SMILES: COc1ccc(OCC2c3cc(OC)c(OC)cc3CCN2C(=O)c2cccc(Cl)c2)cc1 (stereo not drawn) [CIQ, (3-chlorophenyl)(6,7-dimethoxy-1-((4-methoxyphenoxy)methyl)-3,4-dihydroisoquinolin-2(1H)-yl)methanone]
CIQ sensitivity of chimeric receptor [4]: potentiated; also recorded: CIQ sensitivity is observed | change of CIQ potentiation vs NR2D [5]: attenuated; also recorded: reduced level of potentiation | potentiation of mutant receptor response [6]: 135 ± 5% | potentiation of NMDA-activated responses compared to control ([7]; 20 μM CIQ bath applied, −60 mV, 0.2 mM Mg2+): 230 ± 29% | NMDA-activated response after wash, of control amplitude ([7]; after washout of 20 μM CIQ): 102 ± 11% | reduction in the response (NR1/NR2B receptors [10]): 25% | potentiation of NMDA-activated responses [11]: did not potentiate | effect on receptor response (kainate (GluR6) receptor): did not alter; also recorded: not significantly different than control | effect on receptor response (AMPA (GluR1) receptor): did not alter; also recorded: not significantly different than control | effect on receptor response (NR1/NR2B receptors [19]; 10 μM CIQ): did not alter; also recorded: without affecting | effect on receptor response (NR1/NR2A receptors [20]; 10 μM CIQ): did not alter; also recorded: without affecting | effect on receptor response (NR1/NR2A* receptors): no detectable effect; also recorded: not potentiated | effect on triheteromeric receptor response [23]: not potentiated; also recorded: no effect | effect on receptor response (NR1/NR2A receptors [26]): no effect | CIQ potentiation of mutant receptor (NR1/NR2D(T592I)): completely abolished; also recorded: no longer potentiated
